Measured values published in patent publication US20240270699A1, “COMPOUNDS HAVING N-ARYLPYRIMIDIN-2-AMINE DERIVATIVES AS THERAPEUTIC AGENTS” (Lomond Therapeutics, Inc., priority 2021, published 2024).

Columns and labels:
[1] = molecular target: T1, recombinant HPK1 protein (Homo sapiens, UniProt Q92918); experiment: Primary assay of HPK1 enzymatic activity inhibition (ADP-Glo luminescence); type: biochemical; conditions: recombinant HPK1, MBP substrate, 1 hour at room temperature
T1 construct: purchased Promega V6398
T1 sequence (Q92918 1-346 limits assumed): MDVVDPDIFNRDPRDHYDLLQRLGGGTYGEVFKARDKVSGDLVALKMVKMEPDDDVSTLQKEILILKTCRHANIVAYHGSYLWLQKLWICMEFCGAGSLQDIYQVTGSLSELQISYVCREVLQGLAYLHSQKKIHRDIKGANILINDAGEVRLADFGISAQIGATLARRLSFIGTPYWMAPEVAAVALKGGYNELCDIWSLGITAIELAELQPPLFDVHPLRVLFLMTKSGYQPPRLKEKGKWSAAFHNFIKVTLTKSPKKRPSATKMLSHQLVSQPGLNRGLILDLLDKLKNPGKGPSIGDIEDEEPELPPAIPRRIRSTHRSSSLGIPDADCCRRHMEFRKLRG

[2] = tested on: Jurkat cells; experiment: IL-2 release Jurkat assay (anti-CD3/anti-CD28 stimulation, IL-2 ELISA); type: cell-based, human; conditions: activation with 400 ng/mL aCD3 + 400 ng/mL aCD28, 24 hours
[3] = Table B: Jurkat, 1.5 μM of tested compounds
[4] = Table C: Jurkat, 6 μM of tested compounds, stimulated vehicle = A
[5] = Table D: Jurkat, 6 μM of tested compounds, stimulated vehicle = B
[6] = Table F: Jurkat, 1.0 μM of tested compounds

Row | Structure (SMILES) | IC50 [1] | IL-2, pg/mL stimulated [2, 3] | IL-2, pg/mL stimulated [2, 4] | also measured
1 | CS(=O)(=O)c1ccc(Nc2ncc(C(=O)OCCO)c(N[C@H](CO)c3ccccc3)n2)cc1F [Compound 319] | < 50 nM |  | D (150 pg/mL≤IL-2) | 
2 | CCOC(=O)c1cnc(Nc2ccc(S(C)(=O)=O)c(F)c2)nc1N[C@H](CO)c1ccccc1 [Compound 210, Ethyl 2-{[3-fluoro-4-(methylsulfonyl)phenyl]amino}-4-{[(1S)-2-hydroxy-1-phenylethyl]amino}pyrimidine-5-carboxylate] | 200 to 500 nM | D (35.0 pg/mL≤IL-2) |  | 
3 | CCOC(=O)c1cnc(Nc2ccc(S(C)(=O)=O)cc2)nc1N[C@H](CO)c1ccccc1 [Compound 68, Ethyl 4-{[(1S)-2-hydroxy-1-phenylethyl]amino}-2-{[4-(methylsulfonyl)-phenyl]amino}pyrimidine-5-carboxylate] | < 50 nM | D (35.0 pg/mL≤IL-2) |  | 
4 | COCCNC(=O)c1cnc(Nc2ccc(S(C)(=O)=O)c(C)c2)nc1N[C@H](CO)c1ccccc1 [Compound 372, 4-[[(1S)-2-hydroxy-1-phenyl-ethyl]amino]-N-(2-methoxyethyl)-2-(3-methyl-4-methylsulfonyl-anilino)pyrimidine-5-carboxamide] | 200 to 500 nM |  | C (100 pg/mL≤IL-2<150 pg/mL) | 
5 | CNC(=O)c1cnc(Nc2ccc3c(c2)CCN(C)C3=O)nc1N[C@H](CO)c1ccccc1 [Compound 43, 4-{[(1S)-2-hydroxy-1-phenylethyl]amino}-N-methyl-2-[(2-methyl-1-oxo-1,2,3,4-tetrahydroisoquinolin-6-yl)amino]pyrimidine-5-carboxamide] | 50 to 200 nM | D (35.0 pg/mL≤IL-2) |  | 
6 | Cc1noc(-c2cnc(Nc3ccc4c(c3)C(C)(C)NC4=O)nc2N[C@H](CO)c2ccccc2)n1 [Compound 579, 5-[[4-[[(1S)-2-hydroxy-1-phenyl-ethyl]amino]-5-(3-methyl-1,2,4-oxadiazol-5-yl)pyrimidin-2-yl]amino]-3,3-dimethyl-isoindolin-1-one] | < 50 nM |  |  | IL-2, pg/mL stimulated [2, 6]: A (IL-2<50 pg/mL)
7 | CCOC(=O)c1cnc(Nc2ccc(S(C)(=O)=O)c(C)c2)nc1N[C@H](CO)c1ccccc1 [Compound 166, Ethyl 4-{[(1S)-2-hydroxy-1-phenylethyl]amino}-2-{[3-methyl-4-(methylsulfonyl)phenyl]amino}pyrimidine-5-carboxylate] | < 50 nM | C (25.0 pg/mL≤IL-2<35.0 pg/mL) |  | 
8 | Cc1cc(Nc2ncc(C(=O)N(C)C)c(N[C@H](CO)c3ccccc3)n2)ccc1S(C)(=O)=O [Compound 157, 4-[[(1S)-2-hydroxy-1-phenyl-ethyl]amino]-N,N-dimethyl-2-(3-methyl-4-methylsulfonyl-anilino)pyrimidine-5-carboxamide] | 200 to 500 nM |  | C (100 pg/mL≤IL-2<150 pg/mL) | 
9 | CCOC(=O)c1cnc(Nc2ccc(C(=O)N(C)C)c(C)c2)nc1N[C@H](CO)c1ccccc1 [Compound 125, Ethyl 2-[4-(dimethylcarbamoyl)-3-methyl-anilino]-4-[[(1S)-2-hydroxy-1-phenyl-ethyl]amino]pyrimidine-5-carboxylate] | 200 to 500 nM |  |  | IL-2, pg/mL stimulated [2, 5]: D (150 pg/mL≤IL-2)
10 | CCOC(=O)c1cnc(Nc2ccc(S(C)(=O)=O)c(OC)c2)nc1N[C@H](CO)c1ccccc1 [Compound 300, Ethyl 4-{[(1S)-2-hydroxy-1-phenylethyl]amino}-2-{[3-methoxy-4-(methylsulfonyl)phenyl]amino}pyrimidine-5-carboxylate] | 50 to 200 nM |  | A (IL-2<50 pg/mL) | 
11 | CCOC(=O)c1cnc(Nc2ccc3c(c2)CCNC3=O)nc1N[C@@H](CO)c1ccccc1 [Compound 568, ethyl 4-[[(1R)-2-hydroxy-1-phenyl-ethyl]amino]-2-[(1-oxo-3,4-dihydro-2H-isoquinolin-6-yl)amino]pyrimidine-5-carobxylate] | 50 to 200 nM | A (IL-2<5.0 pg/mL) |  | 
12 | CCNC(=O)c1cnc(Nc2ccc(S(C)(=O)=O)c(C)c2)nc1N[C@H](CO)c1ccccc1 [Compound 156, N-ethyl-4-{[(1S)-2-hydroxy-1-phenylethyl]amino}-2-{[3-methyl-4-(methylsulfonyl)phenyl]amino}pyrimidine-5-carboxamide] | 50 to 200 nM | C (25.0 pg/mL≤IL-2<35.0 pg/mL) |  | 

More lines, main results first:

Row | IC50 [1] | Structure (SMILES) | IL-2, pg/mL stimulated [2, 3] | IL-2, pg/mL stimulated [2, 4] | also measured
13 | < 50 nM | CN(C)Cc1noc(-c2cnc(Nc3ccc4c(c3)CNC4=O)nc2N[C@H](CO)c2ccccc2)n1 [Compound 585, 5-[[5-[3-[(dimethylamino)methyl]-1,2,4-oxadiazol-5-yl]-4-[[(1S)-2-hydroxy-1-phenyl-ethyl]amino]pyrimidin-2-yl]amino]isoindolin-1-one] |  |  | IL-2, pg/mL stimulated ([2]; Table G: Jurkat, 1.0 μM of tested compounds): D (150 pg/mL≤IL-2)
14 | 50 to 200 nM | CN1CCc2cc(Nc3ncc(C(=O)NC4CCCC4)c(N[C@H](CO)c4ccccc4)n3)ccc2C1=O [Compound 389, N-cyclopentyl-4-{[(1S)-2-hydroxy-1-phenylethyl]amino}-2-[(2-methyl-1-oxo-1,2,3,4-tetrahydroisoquinolin-6-yl)amino]pyrimidine-5-carboxamide] | C (25.0 pg/mL≤IL-2<35.0 pg/mL) |  | 
15 | 50 to 200 nM | CCOC(=O)c1cnc(Nc2ccc(C(N)=O)c(C)c2)nc1N[C@H](CO)c1ccccc1 [Compound 10, Ethyl 2-(4-carbamoyl-3-methyl-anilino)-4-[[(1S)-2-hydroxy-1-phenyl-ethyl]amino]pyrimidine-5-carboxylate] |  |  | IL-2, pg/mL stimulated [2, 5]: D (150 pg/mL≤IL-2)
16 | 50 to 200 nM | CNC(=O)c1cnc(Nc2ccc(F)c(-c3ccccc3)c2)nc1N[C@H](CO)c1ccccc1 [Compound 82, 2-[(6-fluorobiphenyl-3-yl)amino]-4-{[(1S)-2-hydroxy-1-phenylethyl]amino}-N-methylpyrimidine-5-carboxamide] | C (25.0 pg/mL≤IL-2<35.0 pg/mL) |  | 
17 | 50 to 200 nM | CCOC(=O)c1cnc(Nc2ccc(C(=O)N(C)C)cc2)nc1N[C@H](CO)c1ccccc1 [Compound 47, Ethyl 2-[4-(dimethylcarbamoyl)anilino]-4-[[(1S)-2-hydroxy-1-phenyl-ethyl]amino]pyrimidine-5-carboxylate] |  | B (50 pg/mL≤IL-2<100 pg/mL) | 
18 | < 50 nM | CN(C)Cc1noc(-c2cnc(Nc3ccc4c(c3)CCCS4(=O)=O)nc2N[C@H](CO)c2ccccc2)n1 [Compound 583, (2S)-2-[[5-[3-[(dimethylamino)methyl]-1,2,4-oxadiazol-5-yl]-2-[(1,1-dioxo-3,4-dihydro-2H-thiochromen-6-yl)amino]pyrimidin-4-yl]amino]-2-phenyl-ethanol] |  |  | IL-2, pg/mL stimulated [2, 6]: B (50 pg/mL≤IL-2<100 pg/mL)
19 | 200 to 500 nM | CCOC(=O)c1cnc(Nc2ccc(C(=O)N(C)C)c(Cl)c2)nc1N[C@H](CO)c1ccccc1 [Compound 266, Ethyl 2-[3-chloro-4-(dimethylcarbamoyl)anilino]-4-[[(1S)-2-hydroxy-1-phenyl-ethyl]amino]pyrimidine-5-carboxylate] |  | C (100 pg/mL≤IL-2<150 pg/mL) | 
20 | 200 to 500 nM | Cc1cc(Nc2ncc([N+](=O)[O-])c(N[C@H](CO)c3ccccc3)n2)ccc1S(C)(=O)=O [Compound 18, (2S)-2-[[2-(3-methyl-4-methylsulfonyl-anilino)-5-nitro-pyrimidin-4-yl]amino]-2-phenyl-ethanol] |  | D (150 pg/mL≤IL-2) | 
21 | 200 to 500 nM | CC(C)NC(=O)c1cnc(Nc2ccc(S(C)(=O)=O)c(F)c2)nc1N[C@H](CO)c1ccccc1 [Compound 301, 2-{[3-fluoro-4-(methylsulfonyl)phenyl]amino}-4-{[(1S)-2-hydroxy-1-phenylethyl]amino}-N-(propan-2-yl)pyrimidine-5-carboxamide] | A (IL-2<5.0 pg/mL) |  | 
22 | 50 to 200 nM | CS(=O)(=O)c1ccc(Nc2ncc(C(N)=O)c(N[C@H](CO)c3ccccc3)n2)cc1F [Compound 31, 2-{[3-fluoro-4-(methylsulfonyl)phenyl]amino}-4-{[(1S)-2-hydroxy-1-phenylethyl]amino}pyrimidine-5-carboxamide] | C (25.0 pg/mL≤IL-2<35.0 pg/mL) |  | 
23 | < 50 nM | Cc1cc(Nc2ncc(C(=O)NCC(F)(F)F)c(N[C@H](CO)c3ccccc3)n2)ccc1S(C)(=O)=O [Compound 490, 4-{[(1S)-2-hydroxy-1-phenylethyl]amino}-2-{[3-methyl-4-(methylsulfonyl)phenyl]amino}-N-(2,2,2-trifluoroethyl)pyrimidine-5-carboxamide] | B (5.0 pg/mL≤IL-2<25.0 pg/mL) |  | 
24 | < 50 nM | CCOC(=O)c1cnc(Nc2ccc3c(c2)CCNC3=O)nc1N[C@H](CO)c1cccc(OC)c1 [Compound 570, ethyl 4-[[(1S)-2-hydroxy-1-(3-methoxyphenyl)ethyl]amino]-2-[(1-oxo-3,4-dihydro-2H-isoquinolin-6-yl)amino]pyrimidine-5-carboxylate] | B (5.0 pg/mL≤IL-2<25.0 pg/mL) |  | 
25 | 50 to 200 nM | CCOC(=O)c1cnc(Nc2ccc3c(c2)CCN(CC)C3=O)nc1N[C@H](CO)c1ccccc1 [Compound 218, Ethyl 2-[(2-ethyl-1-oxo-3,4-dihydroisoquinolin-6-yl)amino]-4-[[(1S)-2-hydroxy-1-phenyl-ethyl]amino]pyrimidine-5-carboxylate] |  | D (150 pg/mL≤IL-2) | 
